According to patent publication US20260226493A1, “HERBICIDE RESISTANT PLANTS” (SYNGENTA CROP PROTECTION AG, priority 2023, published 2026):

Tests used:
Assay type in all cases: biochemical
[1] = system: Pedobacter hartonius BioA; assay: BioA enzyme activity with DMSO or herbicide in vitro; conditions: spermidine in substrate mix
From the text: (§1) A pet-24 plasmid containing a DNA sequence encoding each identified variant mutant of BIO3-BIO1 derived from Arabidopsis thaliana from example 5 above, as shown in Table 13 below and as shown in full in SEQ ID NOs: 15 to 155, codon-optimised for expression in E. coli, with an N-terminal 6×His-tag and thrombin cleavage site and under control of a T7 promoter, and was synthesised by Twist Bioscience, in a similar manner to SEQ ID NO:311. These plasmids were then expressed in E. coli BL21 (DE3) bioA with 50 μg/mL kanamycin and 25 μg/mL chloramphenicol selection. Overnight cultures grown at 37° C. were used to inoculate 8×500 mL AIM in shake flasks at a ratio of 1:100. Cultures were grown at 37° C., 200 rpm for 3.5 hours and then overnight at 20° C. Cells were harvested by centrifugation for 30 minutes at 10 000 g. Cells were stored at −80° C. until extraction. 30 g of cell pellet from was thawed in 120 mL of IMAC buffer A (20 mM HEPES pH7.5, 25 mM imidazole, 500 mM sodium chloride, 0.15 mM pyridoxal phosphate, 0.5 mM TCEP, 1× complete Protease Inhibitor Tablet (Roche)). The resuspension was passed through a cell disrupter at 18 000 PSI and centrifuged at 50 000 g for 25 minutes at 4° C. The His-tagged BIO3-BIO1 protein was purified from the extract supernatant on an AKTA avant chromatography system (Cytiva) using a HisTrap FF column and eluted in IMAC buffer B ((20 mM HEPES pH7.5, 500 mM imidazole, 500 mM sodium chloride, 0.15 mM pyridoxal phosphate, 0.5 mM TCEP) followed by SEC using a HiLoad 26/60 Superdex200 column in SEC buffer (25 mM HEPES pH7.5, 150 mM sodium chloride, 0.15 mM pyridoxal phosphate, 0.5 mM TCEP). Protein concentration was measured and calculated using the absorbance at 280 nm. Extracts were diluted 1 in 4 and 10 uL was analysed by SDS PAGE.
(§2) To measure BIO3-BIO1 mutant enzyme activity in the presence of herbicide, herbicides were incubated with 20 μL of enzyme mix (100 mM EPPS pH 8.6, 0.1 mM pyridoxal phosphate, 0.1 mg/mL BSA, 50 nM BIO3-BIO1 enzyme) for 10 minutes at 20° C. in a well of a 96-well half-area black plate, followed by the addition of 20 μL of substrate mix (final concentration of 100 mM EPPS pH 8.6, 0.1 mM pyridoxal phosphate, 0.1 mg/mL BSA, 100 μM spermidine, 20 μM KAPA, 100 mM NaCO3) and further incubation for 75 minutes at 20° C. The reaction was terminated by the addition of 50 μL of derivatisation mix (final concentration of 250 mM borate NaOH pH 9.4, 3.6 mM o-phthalaldehyde, 7 mM β-mercaptoethanol, 17% (v/v) ethanol, 3.6% (v/v) methanol). The fluorescent product produced by the reaction of DAPA with o-phthalaldehyde and 7 mM β-mercaptoethanol was measured at 470 nm after excitation at 410 nm. The percentage inhibition was calculated as the activity in the presence of one of three concentrations of each herbicide compound A to M (note that the compounds labelled as A to M are identified hereinabove in the relevant section of the description) as a percentage of the activity in DMSO (Table 12 and 13). The percentage activity versus WT was also calculated and is shown in Table 13 and 14 (NT indicates mutation not tested in table 13, note that these mutations are tested at different compound concentrations for compounds L, M and C, and the results are shown in table 14).
(§3) Protein of Escherichia coli BioA (SEQ ID NO:159), Pantoea ananatis BioA (SEQ ID NO:167), Streptomyces viridochromogenes BioA (SEQ ID NO:170), Cryptosporidium andersoni BioA (SEQ ID NO:160), Stenotrophomonas maltophilia BioA (SEQ ID NO:171), Chroococcidiopsis BioA (SEQ ID NO:184), Pedobacter hartonius BioA (SEQ ID NO:181), Chitinophaga filiformis BioA (SEQ ID NO:180), Tenacibaculum adriaticum BioA (SEQ ID NO:185) and Bacillus subtilis BioA (SEQ ID NO:166) was prepared using the method in Example 6. BioA enzyme activity in the presence of herbicide or DMSO in vitro for each of the proteins was assayed according to the enzyme assay method in Example 6, except in some reactions spermidine was replaced with 2 mM S-Adenosyl methionine.

[2] = system: Stenotrophomonas maltophilia BioA; assay: as above; conditions: spermidine in substrate mix
From the text: as §1, §2, §3

[3] = system: Tenacibaculum adriaticum BioA; assay: as above; conditions: spermidine in substrate mix
From the text: as §1, §2, §3

Arabidopsis BioDAΔMTP = molecular target: T1, Arabidopsis BioDAΔMTP (Arabidopsis thaliana, UniProt B0F481); assay: BioDA enzyme activity with DMSO or herbicide in vitro (wild-type reference enzyme); conditions: for % Inhibition relative to DMSO treatment: Arabidopsis BioDAΔMTP (Table 26)
T1 construct: with the predicted N-terminal mitochondrial transit peptide removed; 6xHis-tag (N); thrombin cleavage site (N); made in house; host or cells: E. coli BL21 (DE3) bioA
T1 sequence (B0F481 with tags, fused parts or gaps): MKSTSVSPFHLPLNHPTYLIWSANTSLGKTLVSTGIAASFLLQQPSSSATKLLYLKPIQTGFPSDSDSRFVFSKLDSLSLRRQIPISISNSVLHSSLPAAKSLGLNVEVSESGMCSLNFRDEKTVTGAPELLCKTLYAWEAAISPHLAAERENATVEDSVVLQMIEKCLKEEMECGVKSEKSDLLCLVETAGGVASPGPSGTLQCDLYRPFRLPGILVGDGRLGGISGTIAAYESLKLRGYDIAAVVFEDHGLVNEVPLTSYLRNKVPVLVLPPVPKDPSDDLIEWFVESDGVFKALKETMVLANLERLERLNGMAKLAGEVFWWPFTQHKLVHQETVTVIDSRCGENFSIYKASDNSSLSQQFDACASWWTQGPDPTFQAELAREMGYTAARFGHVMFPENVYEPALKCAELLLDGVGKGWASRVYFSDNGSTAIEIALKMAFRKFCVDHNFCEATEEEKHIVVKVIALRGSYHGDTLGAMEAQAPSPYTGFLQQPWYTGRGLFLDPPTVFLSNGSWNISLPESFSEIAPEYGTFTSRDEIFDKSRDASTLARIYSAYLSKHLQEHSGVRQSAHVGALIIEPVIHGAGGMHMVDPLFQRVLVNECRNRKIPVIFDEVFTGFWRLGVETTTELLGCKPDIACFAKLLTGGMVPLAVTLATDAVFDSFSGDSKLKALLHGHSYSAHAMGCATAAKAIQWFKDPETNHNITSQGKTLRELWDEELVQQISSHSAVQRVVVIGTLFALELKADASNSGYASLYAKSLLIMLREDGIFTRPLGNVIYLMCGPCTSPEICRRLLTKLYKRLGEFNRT

[4] = Arabidopsis (SEQ ID NO 294), spermidine in substrate mix, read-out: % Inhibition relative to DMSO treatment
[5] = 31 μM, Arabidopsis (SEQ ID NO 294), spermidine in substrate mix, read-out: % Inhibition relative to DMSO treatment
[6] = 500 μM, Arabidopsis (SEQ ID NO 294), spermidine in substrate mix, read-out: % Inhibition relative to DMSO treatment

CCn1c(Cn2ccc(C(F)(F)F)n2)cc(=O)c(C(=O)O)c1-c1ccc(Cl)c(Cl)c1 [Compound L, 2-(3,4-dichlorophenyl)-1-ethyl-4-oxo-6-[[3-(trifluoromethyl)pyrazol-1-yl]methyl]pyridine-3-carboxylic acid]
% Inhibition relative to DMSO treatment ([1]; 0.5 μM): 2% | % Inhibition relative to DMSO treatment ([2]; 0.5 μM): 0% | % Inhibition relative to DMSO treatment ([2]; 31 μM): 0% | % Inhibition relative to DMSO treatment ([2]; 500 μM): 16% | % Inhibition relative to DMSO treatment ([3]; 0.5 μM): 16% | inhibition at 0.5 µM (Arabidopsis BioDAΔMTP; [4]): 83% | inhibition at 31 µM (Arabidopsis BioDAΔMTP; [5]): 99% | % Inhibition relative to DMSO treatment (Arabidopsis BioDAΔMTP; 31 μM): 99% | inhibition at 500 µM (Arabidopsis BioDAΔMTP; [6]): 98% | % Inhibition relative to DMSO treatment (Arabidopsis BioDAΔMTP; 500 μM): 98%

C[C@@H](N)COc1cccc(C(=O)O)n1.Cl.Cl [Compound E, [(1R)-2-(6-carboxypyridin-1-ium-2-yl)oxy-1-methyl-ethyl]ammonium dichloride]
% Inhibition relative to DMSO treatment ([1]; 200 μM): 80% | % Inhibition relative to DMSO treatment ([2]; 200 μM): 74% | % Inhibition relative to DMSO treatment ([3]; 200 μM): 16% | inhibition at 200 µM (Arabidopsis BioDAΔMTP; [4]): 96%

CCOC(=O)c1nn(-c2ccc3c(c2)OC(F)(F)C(F)(F)O3)c2cccc(C(C)=O)c2c1=O [Compound A, ethyl 5-acetyl-4-oxo-1-(2,2,3,3-tetrafluoro-1,4-benzodioxin-6-yl)cinnoline-3-carboxylate]
% Inhibition relative to DMSO treatment ([1]; 25 μM): 6% | % Inhibition relative to DMSO treatment ([2]; 25 μM): 0% | % Inhibition relative to DMSO treatment ([3]; 25 μM): 14% | inhibition at 25 µM (Arabidopsis BioDAΔMTP; 25 μM, Arabidopsis (SEQ ID NO 294), spermidine in substrate mix, read-out: % Inhibition relative to DMSO treatment): 96%

CCn1c(-c2ccc(Cl)c(Cl)c2)c(C(=O)O)c(=O)c2cc(F)ccc21 [Compound M, 2-(3,4-dichlorophenyl)-1-ethyl-6-fluoro-4-oxo-quinoline-3-carboxylic acid]
% Inhibition relative to DMSO treatment ([1]; 0.5 μM): 0% | % Inhibition relative to DMSO treatment ([2]; 0.5 μM): 1% | % Inhibition relative to DMSO treatment ([3]; 0.5 μM): 13% | inhibition at 0.5 µM (Arabidopsis BioDAΔMTP; [4]): 45%

CCn1c(C)c(-c2ccc(F)cc2F)c(=O)c(C(=O)O)c1-c1ccc(Cl)c(Cl)c1 [Compound C, 2-(3,4-dichlorophenyl)-5-(2,4-difluorophenyl)-1-ethyl-6-methyl-4-oxo-pyridine-3-carboxylic acid]
% Inhibition relative to DMSO treatment ([1]; 0.5 μM): 0% | % Inhibition relative to DMSO treatment ([2]; 0.5 μM): 0% | % Inhibition relative to DMSO treatment ([3]; 0.5 μM): 19% | inhibition at 0.5 µM (Arabidopsis BioDAΔMTP; [4]): 53%

CCn1c(C)c(-c2cc(OC(F)(F)F)ccc2Cl)c(=O)c(C(=O)O)c1-c1ccc(Cl)c(Cl)c1 [Compound D, 5-[2-chloro-5-(trifluoromethoxy)phenyl]-2-(3,4-dichlorophenyl)-1-ethyl-6-methyl-4-oxo-pyridine-3-carboxylic acid]
% Inhibition relative to DMSO treatment ([1]; 0.5 μM): 7% | % Inhibition relative to DMSO treatment ([2]; 0.5 μM): 76% | % Inhibition relative to DMSO treatment ([3]; 0.5 μM): 5% | inhibition at 0.5 µM (Arabidopsis BioDAΔMTP; [4]): 95%

CC(O)C(N)CCCCC(=O)O.Cl (stereo not drawn) [Compound B, [5-carboxy-1-(1-hydroxyethyl)pentyl]ammonium chloride]
% Inhibition relative to DMSO treatment ([1]; 200 μM): 96% | % Inhibition relative to DMSO treatment ([2]; 200 μM): 50% | % Inhibition relative to DMSO treatment ([3]; 200 μM): 18% | inhibition at 31 µM (Arabidopsis BioDAΔMTP; [5]): 79% | inhibition at 200 µM (Arabidopsis BioDAΔMTP; [4]): 96% | inhibition at 500 µM (Arabidopsis BioDAΔMTP; [6]): 96%
